Results reported in the NIST ThermoML archive (doi:10.1021/je020135f).
“And” between values parts separate entries of the source, which are not always exact repeats. Equal entries are not always repeated.

Legend:
[1] = 298.15 K; 101.33 kPa; Liquid; Vibrating tube method
[2] = excess molar enthalpy (molar enthalpy of mixing); xn = mol fraction of the nth substance listed

CC1CCCCC1 [methylcyclohexane]
Conditions	mass density
[1]	764.96 kg/m3 and 764.97 kg/m3

CO [methanol]
Conditions	mass density [kg/m3]
[1]	786.55

CC1CCCCC1 [methylcyclohexane] + CN(C)C=O
excess molar enthalpy [kcal/mol], [2], 101.33 kPa, Liquid
Conditions	298.15 K	313.15 K
x1 = 0.031	0.0593	0.058
x1 = 0.0633	0.104	–
x1 = 0.0634	–	0.114
x1 = 0.0969	0.162	–
x1 = 0.097	–	0.166
x1 = 0.132	0.209	–
x1 = 0.1321	–	0.215
x1 = 0.1687	–	0.26
x1 = 0.2069	–	0.298
x1 = 0.9204	–	0.182
x1 = 0.924	0.17	–
x1 = 0.9274	0.163	–
x1 = 0.9305	0.159	–
x1 = 0.9383	0.147	0.154
x1 = 0.9552	–	0.118

[2]
Conditions	excess molar enthalpy
298.15 K, Liquid mixture 1, x1 = 0.1685	0.228 kcal/mol
298.15 K, Liquid mixture 1, x1 = 0.2068	0.234 kcal/mol
298.15 K, Liquid mixture 1, x1 = 0.2467	0.233 kcal/mol
298.15 K, Liquid mixture 1, x1 = 0.2893	0.233 kcal/mol
298.15 K, Liquid mixture 1, x1 = 0.3322	0.231 kcal/mol
298.15 K, Liquid mixture 1, x1 = 0.3781	0.227 kcal/mol
298.15 K, Liquid mixture 1, x1 = 0.3782	0.226 kcal/mol
298.15 K, Liquid mixture 1, x1 = 0.4264	0.224 kcal/mol
298.15 K, Liquid mixture 1, x1 = 0.4771	0.221 kcal/mol
298.15 K, Liquid mixture 1, x1 = 0.5304	0.218 kcal/mol
298.15 K, Liquid mixture 1, x1 = 0.5867	0.215 kcal/mol
298.15 K, Liquid mixture 1, x1 = 0.646	0.212 kcal/mol
298.15 K, Liquid mixture 1, x1 = 0.7087	0.208 kcal/mol
298.15 K, Liquid mixture 1, x1 = 0.7751	0.204 kcal/mol
298.15 K, Liquid mixture 1, x1 = 0.8455	0.199 kcal/mol
298.15 K, Liquid mixture 1, x1 = 0.9204	0.179 kcal/mol
313.15 K, Liquid mixture 1, x1 = 0.2469	0.315 kcal/mol
313.15 K, Liquid mixture 1, x1 = 0.2887	0.319 kcal/mol and 0.317 kcal/mol
313.15 K, Liquid mixture 1, x1 = 0.3325	0.317 kcal/mol
313.15 K, Liquid mixture 1, x1 = 0.3784	0.316 kcal/mol
313.15 K, Liquid mixture 1, x1 = 0.4267	0.314 kcal/mol
313.15 K, Liquid mixture 1, x1 = 0.4773	0.312 kcal/mol
313.15 K, Liquid mixture 1, x1 = 0.5307	0.308 kcal/mol
313.15 K, Liquid mixture 1, x1 = 0.5869	0.306 kcal/mol
313.15 K, Liquid mixture 1, x1 = 0.6462	0.304 kcal/mol
313.15 K, Liquid mixture 1, x1 = 0.7089	0.301 kcal/mol
313.15 K, Liquid mixture 1, x1 = 0.7753	0.297 kcal/mol
313.15 K, Liquid mixture 1, x1 = 0.8457	0.276 kcal/mol

CN(C)C=O [dimethylformamide]
Conditions	mass density
[1]	943.81 kg/m3 and 943.88 kg/m3

CC1CCCCC1 [methylcyclohexane] + CO
excess molar enthalpy [kcal/mol], [2], 101.33 kPa, Liquid
Conditions	298.15 K	313.15 K
x1 = 0.0166	0.0185	0.02
x1 = 0.0343	–	0.0381
x1 = 0.0345	0.0357	–
x1 = 0.0534	–	0.0559
x1 = 0.0537	0.052	–
x1 = 0.0741	–	0.0718
x1 = 0.0743	0.066	–
x1 = 0.0964	–	0.0868
x1 = 0.0967	0.0793	–
x1 = 0.1206	–	0.101
x1 = 0.121	0.0911	–
x1 = 0.147	–	0.114
x1 = 0.1758	–	0.125
x1 = 0.2075	–	0.134
x1 = 0.2411	–	0.139
x1 = 0.2424	–	0.141
x1 = 0.7423	–	0.16
x1 = 0.8057	–	0.152
x1 = 0.8588	–	0.138
x1 = 0.859	0.101	–
x1 = 0.9055	–	0.123
x1 = 0.9056	0.0887	–
x1 = 0.941	–	0.108

[2]
Conditions	excess molar enthalpy [kcal/mol]
298.15 K, Liquid mixture 1, x1 = 0.1475	0.0996
298.15 K, Liquid mixture 1, x1 = 0.1764	0.103
298.15 K, Liquid mixture 1, x1 = 0.2082	0.104
298.15 K, Liquid mixture 1, x1 = 0.2411	0.105
298.15 K, Liquid mixture 1, x1 = 0.2432	0.105
298.15 K, Liquid mixture 1, x1 = 0.2819	0.105
298.15 K, Liquid mixture 1, x1 = 0.3251	0.106
298.15 K, Liquid mixture 1, x1 = 0.3736	0.106
298.15 K, Liquid mixture 1, x1 = 0.4283	0.107
298.15 K, Liquid mixture 1, x1 = 0.4907	0.108
298.15 K, Liquid mixture 1, x1 = 0.5623	0.108
298.15 K, Liquid mixture 1, x1 = 0.6453	0.109
298.15 K, Liquid mixture 1, x1 = 0.7429	0.111
298.15 K, Liquid mixture 1, x1 = 0.8061	0.109
313.15 K, Liquid mixture 1, x1 = 0.2812	0.145
313.15 K, Liquid mixture 1, x1 = 0.3244	0.147
313.15 K, Liquid mixture 1, x1 = 0.3728	0.15
313.15 K, Liquid mixture 1, x1 = 0.4275	0.154
313.15 K, Liquid mixture 1, x1 = 0.4898	0.157
313.15 K, Liquid mixture 1, x1 = 0.5615	0.16
313.15 K, Liquid mixture 1, x1 = 0.6446	0.164
